According to patent publication US12503436B2, “Compounds and compositions for treating conditions associated with STING activity” (NOVARTIS PHARMA AG, priority 2021, dated 2025):

Target: STING (Homo sapiens, UniProt Q86WV6, G230A/H232R/R293Q/R71H)
Experiment: STING reporter assay in THP1-Dual KO-IFNAR2 cells (2′3′cGAMP stimulation, luciferase reporter)
Assay type: cell-based
Conditions: 15 μM 2′3′cGAMP stimulation, 24 h, read-out: Pharmaron, THP1_IFNAR2 STING 24 h Luci Normalized: GeoMean EC50
How it was run: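 EC50 from secreted luciferase (QUANTI-Luc Plus luminescence of supernatant) after 24 h at 37 °C, 5% CO2. Cells: THP1-Dual KO-IFNAR2, treated with compound (0.0017-100 μM final) plus lipofected 2′3′cGAMP at 15 μM final.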

Sequence of STING (Q86WV6 whole entry R71H/G230A/H232R/R293Q): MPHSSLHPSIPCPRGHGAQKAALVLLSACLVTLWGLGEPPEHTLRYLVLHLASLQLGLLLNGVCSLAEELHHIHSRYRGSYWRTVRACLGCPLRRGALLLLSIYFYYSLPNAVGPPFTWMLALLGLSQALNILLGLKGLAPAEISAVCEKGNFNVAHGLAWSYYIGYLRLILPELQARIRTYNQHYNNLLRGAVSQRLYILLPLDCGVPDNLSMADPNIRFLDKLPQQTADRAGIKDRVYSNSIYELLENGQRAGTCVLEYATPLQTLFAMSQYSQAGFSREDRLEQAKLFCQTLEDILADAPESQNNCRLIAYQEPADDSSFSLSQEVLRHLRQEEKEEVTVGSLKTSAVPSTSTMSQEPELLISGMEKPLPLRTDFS

Work on `CC(=O)Nc1c[nH]c2ccc(O[C@@H]3C[C@@H](c4ccc(C(F)(F)F)cc4)[C@H]3C)cc12` [Compound 443, N-(5-((1R,2R,3R)-2-methyl-3-(4-(trifluoromethyl)phenyl)cyclobutoxy)-1H-indol-3-yl)acetamide] yielded an EC50 of 0.2 to 1 µM.
In the case of `CC(=O)Nc1c[nH]c2ccc(OCC3Cc4cnn(CC(F)(F)F)c4C3)cc12` (centres unmarked) [Compound 444, N-(5-((1-(2,2,2-trifluoroethyl)-1,4,5,6-tetrahydrocyclopenta[c]pyrazol-5-yl)methoxy)-1H-indol-3-yl)acetamide], the EC50 is reported as 5 to 100 µM.
In the case of `C[C@]1(C(=O)Nc2c[nH]c3ccc(OCCc4ccc(C(F)(F)F)cc4)cc23)C[C@@H](O)C1` [Compound 445, (cis)-3-hydroxy-1-methyl-N-(5-(4-(trifluoromethyl)phenethoxy)-1H-indol-3-yl)cyclobutane-1-carboxamide], the EC50 is reported as 0.04 to 0.2 µM.
Work on `C[C@]1(C(=O)Nc2c[nH]c3ccc(OCCc4ccc(C(F)(F)F)cc4)cc23)C[C@H](O)C1` [Compound 446, trans-3-hydroxy-1-methyl-N-(5-(4-(trifluoromethyl)phenethoxy)-1H-indol-3-yl)cyclobutane-1-carboxamide] yielded an EC50 of 0.04 to 0.2 µM.
With `CC(=O)Nc1c[nH]c2ccc(OCC3Cc4cn(CC(F)(F)F)nc4C3)cc12` (centres unmarked) [Compound 447, N-(5-((2-(2,2,2-trifluoroethyl)-2,4,5,6-tetrahydrocyclopenta[c]pyrazol-5-yl)methoxy)-1H-indol-3-yl)acetamide] the EC50 was 5 to 100 µM.
Compound `CC(=O)Nc1c[nH]c2ccc(O[C@@H]3C[C@@H](c4ccc(C(F)(F)F)cc4)[C@@H]3C)cc12` [Compound 448, N-(5-((1R,2S,3R)-2-methyl-3-(4-(trifluoromethyl)phenyl)cyclobutoxy)-1H-indol-3-yl)acetamide] has an EC50 of 0.04 to 0.2 µM.
Compound `CC(=O)Nc1c[nH]c2ccc(CCOc3ccc4ccncc4c3)cc12` [Compound 449, N-{5-[2-(isoquinolin-7-yloxy)ethyl]-1H-indol-3-yl}acetamide] has an EC50 of 1 to 5 µM.
In the case of `CC(=O)Nc1c[nH]c2ccc(CCOc3ccc(Cl)cc3C(F)(F)F)cc12` [Compound 450, N-(5-{2-[4-chloro-2-(trifluoromethyl)phenoxy]ethyl}-1H-indol-3-yl)acetamide], the EC50 is reported as 0.2 to 1 µM.
Compound `CC(=O)Nc1c[nH]c2ccc(CCOc3ccc(-c4ccncc4)cc3)cc12` [Compound 451, N-(5-{2-[4-(pyridin-4-yl)phenoxy]ethyl} -1H-indol-3-yl)acetamide] has an EC50 of 1 to 5 µM.
`CC(=O)Nc1c[nH]c2ccc(CCOc3ccc(OCC(F)(F)F)cc3)cc12` [Compound 452, N-(5-{2-[4-(2,2,2-trifluoroethoxy)phenoxy]ethyl}-1H-indol-3-yl)acetamide] showed an EC50 of 0.04 to 0.2 µM.
With `CC(=O)Nc1c[nH]c2ccc(CCOc3cccc(CC#N)c3)cc12` [Compound 453, N-(5-{2-[3-(cyanomethyl)phenoxy]ethyl}-1H-indol-3-yl)acetamide] the EC50 was 1 to 5 µM.
For `CC(=O)Nc1c[nH]c2ccc(O[C@H]3C[C@@H](c4ccc(C(F)(F)F)nc4)C3)cc12` [Compound 455, N-(5-(cis-3-(6-(trifluoromethyl)pyridin-3-yl)cyclobutoxy)-1H-indol-3-yl)acetamide], the EC50 was 0.2 to 1 µM.
With `CC(=O)Nc1c[nH]c2ccc(CC[C@@H]3C[C@@H]4CN(CC(F)(F)F)C[C@@H]4C3)cc12` [Compound 457, N-(5-(2-((3aR,5r,6aS)-2-(2,2,2-trifluoroethyl)octahydrocyclopenta[c]pyrrol-5-yl)ethyl)-1H-indol-3-yl)acetamide] the EC50 was 0.2 to 1 µM.
With `CC(=O)Nc1c[nH]c2ccc(OCCC34CC(C3)C4)cc12` [Compound 458, N-(5-(2-(bicyclo[1.1.1]pentan-1-yl)ethoxy)-1H-indol-3-yl)acetamide] the EC50 was 1 to 5 µM.
Work on `O=C(Nc1c[nH]c2ccc(O[C@H]3C[C@H](c4ccc(C(F)(F)F)cc4)C3)cc12)C1CNC1` [Compound 459, N-{5-[(1R, 3R)-3-[4-(trifluoromethyl)phenyl]cyclobutoxy]-1H-indol-3-yl}azetidine-3-carboxamide] yielded an EC50 of 5 to 100 µM.
`CC1(C(=O)Nc2c[nH]c3ccc(O[C@H]4C[C@H](c5ccc(C(F)(F)F)cc5)C4)cc23)CCNCC1` [Compound 460, 4-methyl-N-{5-[(1R,3R)-3-[4-(trifluoromethyl)phenyl]cyclobutoxy]-1H-indol-3-yl}piperidine-4-carboxamide] showed an EC50 of 1 to 5 µM.
`COCCc1ccc(OCCc2ccc3[nH]cc(NC(C)=O)c3c2)cc1` [Compound 461, N-(5-{2-[4-(2-methoxyethyl)phenoxy]ethyl}-1H-indol-3-yl)acetamide] was tested, and the EC50 was 0.2 to 1 µM.
For `CC(=O)Nc1c[nH]c2ccc(CCOc3ccc(C#N)cc3)cc12` [Compound 462, N-{5-[2-(4-cyanophenoxy)ethyl]-1H-indol-3-yl}acetamide], the EC50 was 1 to 5 µM.
For `CC(=O)Nc1c[nH]c2ccc(CCOc3ccnc(C4CC4)c3)cc12` [Compound 463], the EC50 was 5 to 100 µM.
In the case of `CC1(C(=O)Nc2c[nH]c3ccc(CCCc4ccc(C(F)(F)F)cn4)cc23)CC1` [Compound 464, 1-methyl-N-(5-(3-(5-(trifluoromethyl)pyridin-2-yl)propyl)-1H-indol-3-yl)cyclopropane-1-carboxamide], the EC50 is reported as 0.2 to 1 µM.
Work on `O=C(Nc1c[nH]c2ccc(O[C@H]3C[C@H](c4ccc(C(F)(F)F)nc4)C3)cc12)c1ccc(C(F)(F)F)cc1` [Compound 465, 4-(trifluoromethyl)-N-(5-(trans-3-(6-(trifluoromethyl)pyridin-3-yl)cyclobutoxy)-1H-indol-3-yl)benzamide] yielded an EC50 of 0.2 to 1 µM.
Work on `CC(C)(C)OC(=O)N1CC(C(=O)Nc2c[nH]c3ccc(O[C@H]4C[C@H](c5ccc(C(F)(F)F)cc5)C4)cc23)C1` [Compound 466, tert-butyl 3-((5-(trans-3-(4-(trifluoromethyl)phenyl)cyclobutoxy)-1H-indol-3-yl)carbamoyl)azetidine-1-carboxylate] yielded an EC50 of 0.2 to 1 µM.
With `N#CC1CCC1C(=O)Nc1c[nH]c2ccc(O[C@H]3C[C@H](c4ccc(C(F)(F)F)cc4)C3)cc12` (stereo partly drawn) [Compound 467, 2-cyano-N-{5-[(1R,3R)-3-[4-(trifluoromethyl)phenyl]cyclobutoxy]-1H-indol-3-yl}cyclobutane-1-carboxamide] the EC50 was 0.2 to 1 µM.
For `COCC1(C(=O)Nc2c[nH]c3ccc(O[C@H]4C[C@H](c5ccc(C(F)(F)F)cc5)C4)cc23)CC1` [Compound 468, l-(methoxymethyl)-N-{5-[(1R,3R)-3-[4-(trifluoromethyl)phenyl]cyclobutoxy]-1H-indol-3-yl}cyclopropane-1-carboxamide], the EC50 was 0.2 to 1 µM.
In the case of `CC1(F)CC(C(=O)Nc2c[nH]c3ccc(O[C@H]4C[C@H](c5ccc(C(F)(F)F)cc5)C4)cc23)C1` (stereo partly drawn) [Compound 469, 3-fluoro-3-methyl-N-{5-[(1R,3R)-3-[4-(trifluoromethyl)phenyl]cyclobutoxy]-1H-indol-3-yl}cyclobutane-1-carboxamide], the EC50 is reported as 0.2 to 1 µM.
`CC(=O)Nc1c[nH]c2ccc(CCOc3ccc(F)c(C(F)(F)F)c3)cc12` [Compound 470, N-(5-{2-[4-fluoro-3-(trifluoromethyl)phenoxy]ethyl}-1H-indol-3-yl)acetamide] was tested, and the EC50 was 0.2 to 1 µM.
`CC(=O)Nc1c[nH]c2ccc(CCOc3ccc(OC(F)(F)F)nc3)cc12` [Compound 471, N-[5-(2-{[6-(trifluoromethoxy)pyridin-3-yl]oxy}ethyl)-1H-indol-3-yl]acetamide] showed an EC50 of 0.2 to 1 µM.
Compound `CC(=O)Nc1c[nH]c2ccc(OCC3CCC(C(F)(F)F)CC3)cc12` (centres unmarked) [Compound 472, N-(5-((4-(trifluoromethyl)cyclohexyl)methoxy)-1H-indol-3-yl)acetamide] has an EC50 of 0.2 to 1 µM.
`CC(=O)Nc1c[nH]c2ccc(OC3Cc4ccc(C(F)(F)F)cc4C3)cc12` (centres unmarked) [Compound 473, N-(5-((5-(trifluoromethyl)-2,3-dihydro-1H-inden-2-yl)oxy)-1H-indol-3-yl)acetamide] was tested, and the EC50 was 1 to 5 µM.
Compound `CC(=O)Nc1c[nH]c2ccc(OCCC34CC(C(F)(F)F)(C3)C4)cc12` [Compound 474, N-(5-(2-(3-(trifluoromethyl)bicyclo[1.1.1]pentan-1-yl)ethoxy)-1H-indol-3-yl)acetamide] has an EC50 of 0.2 to 1 µM.
`CC(=O)Nc1c[nH]c2ccc(CCOc3ccc(-c4csc(C)n4)cc3)cc12` [Compound 475, N-(5-{2-[4-(2-methyl-1,3-thiazol-4-yl)phenoxy]ethyl} -1H-indol-3-yl)acetamide] showed an EC50 of 1 to 5 µM.
For `CC(=O)Nc1c[nH]c2ccc(CCOc3cc(Cl)cc(C#N)c3)cc12` [Compound 476, N-{5-[2-(3-chloro-5-cyanophenoxy)ethyl]-1H-indol-3-yl}acetamide], the EC50 was 1 to 5 µM.
`CC(=O)Nc1c[nH]c2ccc(CCOc3cnc4c(OC(F)(F)F)cccc4c3)cc12` [Compound 477, N-[5-(2-{[8-(trifluoromethoxy)quinolin-3-yl]oxy}ethyl)-1H-indol-3-yl]acetamide] gave an EC50 of 1 to 5 µM.
`CC(=O)Nc1c[nH]c2ccc(OCCC3CN(CC(F)(F)F)CC34CC4)cc12` (centres unmarked) [Compound 478, N-(5-(2-(5-(2,2,2-trifluoroethyl)-5-azaspiro[2.4]heptan-7-yl)ethoxy)-1H-indol-3-yl)acetamide] showed an EC50 of 1 to 5 µM.
For `CC1(C(=O)Nc2c[nH]c3ccc(OC[C@@H]4C[C@@H]5CN(CC(F)(F)F)C[C@@H]5C4)cc23)COC1` [Compound 479, 3-methyl-N-(5-(((3aR,5r,6aS)-2-(2,2,2-trifluoroethyl)octahydrocyclopenta[c]pyrrol-5-yl)methoxy)-1H-indol-3-yl)oxetane-3-carboxamide], the EC50 was 0.04 to 0.2 µM.
`CC(=O)Nc1c[nH]c2ccc(CCOc3cnc4ccc(OC(F)(F)F)cc4c3)cc12` [Compound 480, N-[5-(2-{[6-(trifluoromethoxy)quinolin-3-yl]oxy}ethyl)-1H-indol-3-yl]acetamide] gave an EC50 of 0.2 to 1 µM.
`CC(=O)Nc1c[nH]c2ccc(CCOc3cncc(C(F)(F)F)c3)cc12` [Compound 481, N-[5-(2-{[5-(trifluoromethyl)pyridin-3-yl]oxy}ethyl)-1H-indol-3-yl]acetamide] was tested, and the EC50 was 1 to 5 µM.
With `CC(=O)Nc1c[nH]c2ccc(CO[C@H]3C[C@H](c4ccc(C(F)(F)F)cc4)C3)cc12` [Compound 482, N-(5-((trans-3-(4-(trifluoromethyl)phenyl)cyclobutoxy)methyl)-1H-indol-3-yl)acetamide] the EC50 was 0.04 to 0.2 µM.
